Measurements as given in PMC10866072, “Design, synthesis, molecular modelling and biological evaluation of novel 6-amino-5-cyano-2-thiopyrimidine derivatives as potent anticancer agents against leukemia and apoptotic inducers” (Journal of Enzyme Inhibition and Medicinal Chemistry, 2024).

How the values were obtained:
HL-60(TB) = type: cell-based
A549/ATCC = type: cell-based
SW-620 = type: cell-based
SF-268 = type: cell-based
SF-295 = type: cell-based
SNB-19 = type: cell-based
SNB-75 = type: cell-based
LOX IMVI = type: cell-based
MALME-3M = type: cell-based
SK-MEL-5 = type: cell-based
OVCAR-4 = type: cell-based
NCI/ADR-RES = type: cell-based
SN12C = type: cell-based, human; conditions: Homo sapiens, one dose 10^-5 M, 48 h
TK-10 = type: cell-based
PC-3 = type: cell-based
MCF7 = type: cell-based
HL60 cells = assay: Cell cycle analysis (propidium iodide, flow cytometry); type: cell-based, human; conditions: HL60, 48 h treatment
Experimental: (§1) Compound 1c was selected as a potent candidate, its effect on cell cycle phases of HL60 and leukaemia SR cells was investigated using propidium iodide staining and flow cytometric analysis according to the cell cycle kit (Abcam ®, ab139418-)[90]^,[91]^. Briefly, HL60 and leukaemia SR cells were cultured under optimum conditions. Afterwards, cells were treated by compound 1c for 48 h. Then, they were harvested, washed with PBS, and cell fixation was performed using ethanol on ice. Additionally, cells were pelleted at 500 xg for 5 min and supernatant was gently aspirated. Furthermore, fixed cells were washed by phosphate-buffered saline (PBS) and resuspended in 200 µl 1 x propidium iodide + RNAse staining solution and incubated in dark for 30 min. Finally, stained cells were tested by flow cytometer using FACSCalibur (Becton Dickinson Biosciences, CA, USA). Finally, Cell Quest software (Becton Dickinson Biosciences) was used to determine cell cycle distribution.

leukaemia SR cells = assay: as above; type: cell-based, human; conditions: 48 h treatment
Experimental: as §1

[1] = system: caspase 3 level in HL60 cells; assay: Caspase 3 ELISA; type: cell-based, human; conditions: HL 60 cells
Experimental: (§2) One of the most significant downstream caspases, Caspase-3, is referred to as an effector caspase[94]^,[95]. For further analysis, the effect of compound 1c on caspase 3 enzyme level was measured using ELISA kit (Invitrogen, Catalog # KHO1091) according to the manufacturer’s instructions. Briefly, 100 µl of the standard diluent buffer to the zero standard wells. Additionally, 100 µl of standards and controls or diluted samples were added to the appropriate microtiter wells, then wells were covered with plate cover and incubated for 2 h at R.T. Afterwards, wells were aspirated gently, washed with washing buffer 4 times. Furthermore, 100 µl of caspase 3 detection antibody was added into each well except the blank wells, and the plate was covered and incubated for 1 h at R.T. Then, the aspiration and washing steps were repeated again. Finally, 100 µl of the stabilised chromogen solution were added, plate was incubated for 30 min at R.T., stop solution was used to stop the reaction and the developed colour was measured at wave length 450 nm using plat ELISA reader.

[2] = system: caspase 3 level in leukaemia SR cells; assay: Caspase 3 ELISA; type: cell-based, human
Experimental: as §2

[3] = MTT cytotoxicity on normal cells; type: cell-based; conditions: human, WI-38 cells (normal lung fibroblasts), WI-38 normal cells, mean ± SD of three experiments, read-out: IC50 (cytotoxic activity)
Experimental: The American Type Culture Collection provided WI-38 cells (normal lung cells). The cells were grown in DMEM with 10% heat-inactivated FBS (Hyclone), 10 µg/ml of insulin (Sigma), and 1% penicillin-streptomycin. The remaining chemicals and reagents were all from Sigma or Invitrogen. The MTT test was used to evaluate cytotoxicity, as described previously. Graph pad Prism software (San Diego, CA) was used to estimate the 50% inhibitory concentration (IC50) from dose response curve graphic plots for each conc.

[4] = system: Ovarian cancer cell lines; assay: NCI-60 five-dose, subpanel
Excerpt: A measure of a compound’s selectivity for a given cell line is the ratio created by dividing the full panel mean graph midpoints (MG-MID) concentration by the individual subpanel MG-MID concentrations (obtained as the average sensitivity of all the cell lines in a given subpanel to the test compound).
Assessment of selectivity of a compound depends on the ratio obtained by dividing the full panel MID ^a by their individual subpanel MID ^b (µM) where MID^a is the average sensitivity of all cell lines towards the test agent (µM).

[5] = Homo sapiens, five-dose, read-out: LC50 (the source's name)
[6] = Homo sapiens, one dose 10^-5 M, 48 h
[7] = Homo sapiens, one dose 10^-5 M, 48 h, read-out: % growth

Work on `N#Cc1c(N)nc(S)nc1-c1ccc(Cl)cc1Cl` [Compound 1c, 4-Amino-6–(2,4-dichlorophenyl)-2-mercaptopyrimidine-5-carbonitrile] yielded a GI50 (HL-60(TB); Homo sapiens, five-dose) of 0.08 µM, a CC50 (HL-60(TB); [5]) greater than 100 µM and a % growth at 10 µM (HL-60(TB); [6]) of 5.3%. For the same molecule, the TGI (HL-60(TB); five-dose) was 1.82 µM, the GI50 (A549/ATCC; Homo sapiens, five-dose) was 25.8 µM and the LC50 (A549/ATCC; Homo sapiens, five-dose) was greater than 100 µM. The % growth at 10 µM (A549/ATCC; [6]) was 90.1%, the TGI (A549/ATCC; five-dose) was 77.40 µM and the GI50 (SW-620; Homo sapiens, five-dose) was 12 µM. It also gave an LC50 (SW-620; Homo sapiens, five-dose) of 78.6 µM, a % growth at 10 µM (SW-620; [6]) of 45.7% and a TGI (SW-620; five-dose) of 30.70 µM. It also gave a GI50 (SF-268; Homo sapiens, five-dose) of 18.1 µM, a CC50 (SF-268; [5]) greater than 100 µM and an activity at 10 µM (SF-268; [7]) of 51%. The TGI (SF-268; five-dose) was 52.70 µM, the GI50 (SF-295; Homo sapiens, five-dose) was 10.4 µM and the CC50 (SF-295; [5]) was 49 µM. The % cell growth at 10 µM (SF-295; [6]) was 78.1%, the TGI (SF-295; five-dose) was 22.60 µM and the GI50 (SNB-19; Homo sapiens, five-dose) was 17 µM. For the same molecule, the CC50 (SNB-19; [5]) was greater than 100 µM, the activity at 10 µM (SNB-19; [7]) was 75.4% and the TGI (SNB-19; five-dose) was 50.00 µM. For the same molecule, the GI50 (SNB-75; Homo sapiens, five-dose) was 4.9 µM, the LC50 (SNB-75; Homo sapiens, five-dose) was 79.9 µM and the % growth at 10 µM (SNB-75; [6]) was 36.5%. It also gave a TGI (SNB-75; five-dose) of 25.50 µM, a GI50 (LOX IMVI; Homo sapiens, five-dose) of 1.1 µM and a CC50 (LOX IMVI; [5]) of 40 µM. The activity at 10 µM (LOX IMVI; [7]) was -49.2%, the TGI (LOX IMVI; five-dose) was 15.10 µM and the “% growth” value (LOX IMVI; one dose 10^-5 M, 48 h) was -49.21%. The GI50 (MALME-3M; Homo sapiens, five-dose) was 15.3 µM, the CC50 (MALME-3M; [5]) was 69.7 µM and the % growth at 10 µM (MALME-3M; [6]) was 4.96%. It also gave a TGI (MALME-3M; five-dose) of 32.70 µM, a GI50 (SK-MEL-5; Homo sapiens, five-dose) of 5.56 µM and a CC50 (SK-MEL-5; [5]) of 45 µM. For the same molecule, the activity at 10 µM (SK-MEL-5; [7]) was 58.1%, the TGI (SK-MEL-5; five-dose) was 19.50 µM and the GI50 (OVCAR-4; Homo sapiens, five-dose) was 32 µM. It also gave a CC50 (OVCAR-4; [5]) greater than 100 µM, a % growth at 10 µM (OVCAR-4; [6]) of 81.2% and a TGI (OVCAR-4; five-dose) greater than 100 µM. For the same molecule, the GI50 (NCI/ADR-RES; Homo sapiens, five-dose) was 0.7 µM, the CC50 (NCI/ADR-RES; [5]) was greater than 100 µM and the cell growth percent at 10 µM (NCI/ADR-RES; [6]) was 37.9%. It also gave a TGI (NCI/ADR-RES; five-dose) of 26.20 µM, a % growth at 10 µM (SN12C) of 62.1% and a GI50 (TK-10; Homo sapiens, five-dose) of 21.5 µM. It also gave an LC50 (50% lethal concentration) (TK-10; Homo sapiens, five-dose) greater than 100 µM, a % cell growth at 10 µM (TK-10; [6]) of 114% and a TGI (TK-10; five-dose) of 50.20 µM. For the same molecule, the GI50 (PC-3; Homo sapiens, five-dose) was 11.1 µM, the CC50 (PC-3; [5]) was greater than 100 µM and the percent cell growth at 10 µM (PC-3; [6]) was 49.8%. The TGI (PC-3; five-dose) was 48.20 µM, the GI50 (MCF7; Homo sapiens, five-dose) was 0.12 µM and the CC50 (MCF7; [5]) was greater than 100 µM. For the same molecule, the activity at 10 µM (MCF7; [7]) was 31.6%, the TGI (MCF7; five-dose) was 31.10 µM and the “% cells in G0/G1 (%DIP G1)” value (HL60 cells) was 57.37%. For the same molecule, the “% cells in S phase” value (HL60 cells) was 33.07%, the “% cells in G1 (%DIP G1)” value (leukaemia SR cells) was 55.22% and the “% cells in S phase” value (leukaemia SR cells) was 31.89%. For the same molecule, the “caspase 3 level increase vs untreated control” value [1] was 5.6 folds, the “caspase 3 level increase vs untreated control” value [2] was 3.4 folds and the IC50 [3] was 43.6 ± 1.2 µM. The GI50 ([4]; Homo sapiens, read-out: GI50 Subpanel MID^b) was 19.2 µM and the “Selectivity ratio (full panel MID^a / subpanel MID^b, GI50 level)” value ([4]; ovarian cancer) was 0.7.
